Values of other authors as cited in PMC4851381, “High Throughput Screening Identifies Novel Lead Compounds with Activity against Larval, Juvenile and Adult Schistosoma mansoni” (PLoS Neglected Tropical Diseases, 2016).

Key:
Cyp2C19 = system: Cyp2C19; set-up: method as in ChEMBL; conditions: ref ChEMBL; cited from earlier work
Cyp3A4 = system: Cyp3A4; set-up: method as in ChEMBL; conditions: ref ChEMBL; cited from earlier work

For `Cc1[nH]c2ccccc2c1C(c1ccccn1)N1CCC(C)CC1` (centres unmarked) [CHEMBL1517121], the AC50 (Cyp2C19) is given as 13 µM and the AC50 (Cyp3A4) is given as 2 µM.
